# Source: publication PMC1976805, “Preclinical pharmacokinetics of benznidazole” (British Journal of Cancer, 1984)
# Several values for one entry are separate records, joined by “and”; a condition that tells them apart may be missing. Equal values may be shown once. Read-outs that look alike come from different tables or passages of the source.
# Experiments:
# [1] = Penetration into whole brain of BALB/c mice bearing EMT6 tumours; assay type: in vivo, mouse; details: for brain/whole plasma ratio (% ± s.e.) / brain/whole plasma ratio (s.e., n=5): 650 mg kg-1 i.p.; for tumour/brain ratio (% + s.e.): EMT6, 650 mg kg-1 i.p.; for brain/whole plasma ratio (s.e., n=5): experiment b; for Kp: male, BALB/c, mouse, whole brain / whole plasma
# Source text: (§1) Br. J. Cancer (1984), 50, 291-303 Preclinical pharmacokinetics of benznidazole P. Workman', R.A.S. White2, M.I. Walton', L.N. Owen2* & P.R. Twentyman' 1MRC Clinical Oncology and Radiotherapeutics Unit, MRC Centre, Hills Road, Cambridge CB2 2QH, and 2Department of Clinical Veterinary Medicine, University of Cambridge, Madingley Road, Cambridge CB3 OES, UK. […] We have investigated the detailed pharmacokinetics of benznidazole in mice, dogs and sheep to provide a data base for the estimation of doses required for chemosensitization in man. Pharmacokinetic behaviour was linear except at high doses in mice. Absorption was fairly rapid and bioavailability was complete following both i.p. administration in mice and oral administration in dogs. Elimination t4 values were longer than for MISO, being 90 min in mice, 4-5 h in sheep and 9-11 h in dogs. At doses giving linear kinetics, peak whole plasma concentrations per administered mgkg-1 were 0.75 jigml-1 for the i.p. route in mice and 1.8jugmlP' for the oral route in dogs. Though between 39 and 59% of plasma benznidazole was bound to protein, tissue penetration was generally good. Tissue/whole plasma ratios ranged from 59-99% for transplantable mouse tumours and from 14-70% for spontaneous dog neoplasms. Nervous tissue penetration was similar to that in tumours: brain/whole plasma ratios averaged between 61 and 76% in mice and 42% in dogs, while peripheral nerve/whole plasma ratios in dogs averaged 74%. Mean liver/whole plasma ratios were 42% and 71% in BALB/c and C3H/He mouse strains respectively. Only -5% of the administered dose was excreted unchanged in the urine, indicating the likelihood of extensive metabolism. […] Enhancement of CCNU response is likely to require circulating benznidazole concentrations of 10-30 pgml-1 and we predict that these will be obtained with oral doses of 6-20 mgkg- 1 in man. […] This enhancement, or chemosensitization, is usually greater than that seen in dose-limiting normal tissues, resulting in an improved therapeutic index. Because of the relatively high doses of MISO usually required for chemosensitization in mice (see above refs), and also because of its neurotoxicity in man (Dische et al., 1977), we have been interested in finding an improved chemosensitizer. […] The lipophilic ana- logue benznidazole (N-benzyl-(2-nitroimidazolyl) acetamide, Ro 07-1051; Radanil; Roche), the structure of which is shown in Figure 1, was selected for detailed study because of its ability to *Present address: Animal Health Trust, Small Animals Centre, Lanwades Park, Kennett, Newmarket, Suffolk CB8 7PN, UK. Correspondence: P. Workman. […] These findings have been confirmed independently by Siemann et al. (1983). Although benznidazole is used quite widely in South America to treat patients with the trypanosomal infection Chagas' disease or with mucotaneous Leishmaniasis (Barclay et al., 1978; Cerisola et al., 1978; Coura et al., 1978; Fava et al., 1978), apart from our preliminary studies (White et al., 1982) the only published data on its pharmaco- kinetics are for human plasma concentrations measured by polarography (Raaflub & Ziegler, 1979; Raaflub, 1980). Here we describe the pharmacokinetics of benznidazole in the mouse, sheep and dog, as determined by high-performance liquid chromatography (HPLC). […] The Macmillan Press Ltd., 1984 292 P. WORKMAN et al. particularly on plasma and tumour concentrations, have been used as a basis for the estimation of the benznidazole doses required in a Phase I trial of benznidazole plus CCNU, at present ongoing in our Unit. Materials and methods Animals and tumours Adult inbred male BALB/c mice were obtained from OLAC (Southern) Ltd. (Bicester, UK) and adult inbred C3H/He mice of both sexes from OLAC and our own breeding colony. Mice were housed in plastic cages on sawdust bedding made from soft white woods, and allowed laboratory chow and water ad lib. They were used at 20-35 g body wt.
# Aqueous solubility = assay type: physicochemical
# [2] = Whole plasma pharmacokinetics of benznidazole in mice (HPLC); assay type: in vivo, mouse; details: for i.p. bioavailability (from AUC0-∞): 65 mg kg-1 i.p.; for half-life / Tmax: mouse; for Tmax: read-out: time of peak plasma concentration (converted)
# Source text: as §1
# human plasma = details: cited from earlier work
# plasma proteins = assay: Plasma protein binding in sheep (plasma ultrafiltrate); assay type: in vivo
# Source text: Br. J. Cancer (1984), 50, 291-303 Preclinical pharmacokinetics of benznidazole P. Workman', R.A.S. White2, M.I. Walton', L.N. Owen2* & P.R. Twentyman' 1MRC Clinical Oncology and Radiotherapeutics Unit, MRC Centre, Hills Road, Cambridge CB2 2QH, and 2Department of Clinical Veterinary Medicine, University of Cambridge, Madingley Road, Cambridge CB3 OES, UK. […] We have investigated the detailed pharmacokinetics of benznidazole in mice, dogs and sheep to provide a data base for the estimation of doses required for chemosensitization in man. Pharmacokinetic behaviour was linear except at high doses in mice. Absorption was fairly rapid and bioavailability was complete following both i.p. administration in mice and oral administration in dogs. […] Although benznidazole is used quite widely in South America to treat patients with the trypanosomal infection Chagas' disease or with mucotaneous Leishmaniasis (Barclay et al., 1978; Cerisola et al., 1978; Coura et al., 1978; Fava et al., 1978), apart from our preliminary studies (White et al., 1982) the only published data on its pharmaco- kinetics are for human plasma concentrations measured by polarography (Raaflub & Ziegler, 1979; Raaflub, 1980). Here we describe the pharmacokinetics of benznidazole in the mouse, sheep and dog, as determined by high-performance liquid chromatography (HPLC). […]
# [3] = Penetration into mouse liver; assay type: in vivo; details: for liver/whole plasma ratio, overall mean / liver concentration / whole plasma concentration / Kp at 0.5 h / Kp at 3 h / Kp at 6 h / Kp: 78 mg kg-1 i.p.; for liver/whole plasma ratio, overall mean / Kp: 0.5-6 h; for Kp at 0.5 h / Kp at 3 h / Kp at 6 h / Kp: mouse, ip; for Kp at 0.5 h / Kp at 3 h / Kp at 6 h: liver / whole plasma, read-out: liver/whole plasma ratio; for Kp: liver, read-out: liver/whole plasma ratio, overall mean
# Source text: as §1
structure (smiles),measurement,setting,value
"O=C(Cn1ccnc1[N+](=O)[O-])NCc1ccccc1 [benznidazole, N-benzyl-(2-nitroimidazolyl) acetamide]",brain/whole plasma ratio (% ± s.e.),"[1]; Exp 1 (a), n=16",61+5%
same,tumour/brain ratio (% + s.e.),"[1]; Exp 1 (a), n=16",120+33%
same,brain/whole plasma ratio (% ± s.e.),"[1]; Exp 2 (b), n=20",68+3%
same,tumour/brain ratio (% + s.e.),"[1]; Exp 2 (b), n=20",116+5%
same,brain/whole plasma ratio (% ± s.e.),"[1]; Exp 3 (c), n=20",76+4%
same,tumour/brain ratio (% + s.e.),"[1]; Exp 3 (c), n=20",99+7%
same,"brain/whole plasma ratio (s.e., n=5)",[1]; 45 min,56+3%
same,"brain/whole plasma ratio (s.e., n=5)",[1]; 75 min,69+3%
same,"brain/whole plasma ratio (s.e., n=5)",[1]; 105 min,71+5%
same,"brain/whole plasma ratio (s.e., n=5)",[1]; 135 min,75 +5%
same,Kp,"[1]; mice, discussion comparison with MISO, read-out: brain/whole plasma ratio",0.68
same,Kp,"[1]; read-out: brain/whole plasma ratios, range of averages",0.61 to 0.76
same,aqueous solubility,Aqueous solubility,low aqueous solubility
same,peak whole plasma concentration (+2 s.e.),"[2]; BALB/c mice, 26 mg kg-1 i.p.",18.0+3.7 µg ml-1
same,i.p. bioavailability (from AUC0-∞),"[2]; BALB/c mice, 50% polyethylene glycol/saline vehicle",87%
same,i.p. bioavailability (from AUC0-∞),"[2]; BALB/c mice, dimethyl sulphoxide vehicle",113%
same,peak whole plasma concentration (+2 s.e.),"[2]; BALB/c mice, 78 mg kg-1 i.p.",36.0+2.5 µg ml-1
same,peak whole plasma concentration (+2 s.e.),"[2]; BALB/c mice, 650 mg kg-1 i.p.",105+15 µg ml-1
same,"blood/whole plasma concentration ratio, overall mean (s.e., n=16)","[2]; BALB/c mice, 650 mg kg-1 i.p. in arachis oil, 45-135 min",116+4%
same,whole plasma concentration remaining at 24 h,"[2]; BALB/c mice, 650 mg kg-1 i.p., experiment of Figure 3",15 µg/mL
same,half-life,"[2]; male, plasma, ip, BALB/c mice, 26 mg kg-1 i.p., suspension in 50% polyethylene glycol, read-out: elimination half-life (95% confidence limits)",93 min
same,half-life,"[2]; male, plasma, ip, BALB/c mice, 68 mg kg-1 (so in the source) i.p., suspension in 50% polyethylene glycol, read-out: elimination half-life (95% confidence limits)",96 min
same,Tmax,"[2]; male, plasma, ip, BALB/c mice, 650 mg kg-1 i.p.",60 min
same,Tmax,"[2]; male, plasma, ip, BALB/c mice, 26 and 78 mg kg-1 i.p.",15 to 30 min
same,half-life,"[2]; male, plasma, iv, BALB/c mice, 32.5 mg kg-1 i.v. in dimethyl sulphoxide, read-out: elimination half-life (95% confidence limits)",119 min
same,half-life,"[2]; male, plasma, iv, BALB/c mice, 65 mg kg-1 i.v. in dimethyl sulphoxide, read-out: elimination half-life (95% confidence limits)",117 min
same,peak whole plasma concentration that would be produced,"[2]; mice, 13 mg kg-1 i.p.",about 10 µg ml-1
same,"whole plasma concentration (dose-peak concentration curve, Figure 4)","[2]; mice, 26 mg kg-1 i.p.",20 µg/mL
same,whole plasma concentration,"[2]; mice, 78 mg kg-1 i.p., discussion summary",30 µg/mL
same,"whole plasma concentration (dose-peak concentration curve, Figure 4)","[2]; mice, 650 mg kg-1 i.p.",90 µg/mL
same,whole plasma concentration remaining at 24 h,"[2]; mice, 650 mg kg-1 i.p., some other experiments (undetectable)",< 0.2 µg/mL
same,peak whole plasma concentration per administered mg kg-1,"[2]; mice, i.p. route, doses giving linear kinetics",0.75 micrograms ml-1
same,half-life,"[2]; plasma, mice, summary value, read-out: elimination t1/2",90 min
same,metabolites detectable by HPLC with u.v. detection at 313 nm,"[2]; plasma, urine and tissues of all species studied",no evidence of metabolites
same,binding to plasma proteins,"human plasma; ref Raaflub & Ziegler, 1979",44%
same,binding to plasma proteins,"human plasma; ref Workman & Brown, 1981",58%
same,fraction unbound,"plasma proteins; male, Clun Forest/Border Leicester cross, plasma, iv, sheep 2, 4 mg kg-1 i.v., read-out: protein binding (s.e., n=6) (converted)",0.58
same,binding to plasma proteins,"plasma proteins; sheep, discussion summary",42%
same,"liver/whole plasma ratio, overall mean",[3]; BALB/c,41.7%
same,liver concentration,"[3]; BALB/c, 0.5 h",20.8 µg/g
same,whole plasma concentration,"[3]; BALB/c, 0.5 h",45.3 µg/mL
same,liver concentration,"[3]; BALB/c, 3.0 h",10.3 µg/g
same,whole plasma concentration,"[3]; BALB/c, 3.0 h",29.8 µg/mL
same,liver concentration,"[3]; BALB/c, 6.0 h",8.2 µg/g
same,whole plasma concentration,"[3]; BALB/c, 6.0 h",12.2 µg/mL
same,"liver/whole plasma ratio, overall mean","[3]; C3H/He, n=29",70.6% and 71 + 8%
same,liver concentration,"[3]; C3H/He, 0.5 h",25.2 µg/g
same,whole plasma concentration,"[3]; C3H/He, 0.5 h",33.9 µg/mL
same,liver concentration,"[3]; C3H/He, 3.0 h",17.3 µg/g
same,whole plasma concentration,"[3]; C3H/He, 3.0 h",34.1 µg/mL
same,liver concentration,"[3]; C3H/He, 6.0 h",17.8 µg/g
same,whole plasma concentration,"[3]; C3H/He, 6.0 h",21.1 µg/mL
same,Kp at 0.5 h,"[3]; both sexes, C3H/He, 78 mg kg-1, C3H/He, 0.5 h",0.758
same,Kp at 3 h,"[3]; both sexes, C3H/He, 78 mg kg-1, C3H/He, 3.0 h",0.533
same,Kp at 6 h,"[3]; both sexes, C3H/He, 78 mg kg-1, C3H/He, 6.0 h",0.843
same,Kp,"[3]; both sexes, C3H/He, 78 mg kg-1, C3H/He, n=29",0.71
same,Kp at 0.5 h,"[3]; male, BALB/c, 78 mg kg-1, BALB/c, 0.5 h",0.466
same,Kp at 3 h,"[3]; male, BALB/c, 78 mg kg-1, BALB/c, 3.0 h",0.348
same,Kp at 6 h,"[3]; male, BALB/c, 78 mg kg-1, BALB/c, 6.0 h",0.439
same,Kp,"[3]; male, BALB/c, 78 mg kg-1, BALB/c",0.42
same,peak liver concentration that would be produced,"[3]; mice, 13 mg kg-1 i.p.",~7 µg/g
same,liver concentration,"[3]; mice, discussion summary",21 µg/g
